18 compounds from article PMC3676484 (Journal of medicinal chemistry, 2013) can be followed below.

Data set [1] concerns the target HIF-2α PAS-B domain (Homo sapiens, UniProt Q99814). Briefly: Isothermal titration calorimetry. It counts as binding. Conditions: for weakening of binding relative to compound 32: ITC data, compared with 32. (In general: ITC needs no label: the signal is the heat of the interaction.)
In data set [2] the test system is GST-HIF-2α PAS-B* and ARNT PAS-B*-FLAG domains (HIF-2α–ARNT heterodimerization). Briefly: AlphaScreen luminescence proximity assay of HIF-2α–ARNT PAS-B heterodimerization. Conditions: for IC50: read-out: AlphaScreen IC50, disruption of HIF-2α PAS-B*–ARNT PAS-B* heterodimer; for AlphaScreen activity (in words): disruption of HIF-2α–ARNT heterodimerization. A general note: In Alpha technology, singlet oxygen from a donor bead excites a nearby acceptor bead.

Data set [3] is described as follows: Solubility observation. It counts as physicochemical.

HIF-2α PAS-B domain, sequence (Q99814 240-350 limits assumed): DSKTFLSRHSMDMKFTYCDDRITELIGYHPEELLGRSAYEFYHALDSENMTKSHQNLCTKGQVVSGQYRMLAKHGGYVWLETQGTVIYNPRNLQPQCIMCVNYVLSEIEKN

As to `O=[N+]([O-])c1c(Nc2cccc(Cl)c2)ccc2nonc12` [Compound 19], the “weakening of binding relative to compound 32” value in data set [1] is “two fold reduction in affinity”.
Take `O=[N+]([O-])c1c(Nc2ccc(Br)cc2)ccc2nonc12` [Compound 20]: the IC50 in data set [2] was over 30 µM.
As for `COc1cccc(Nc2ccc3nonc3c2[N+](=O)[O-])c1` [Compound 16], the concentration for half-maximal inhibition (IC50) in data set [2] is over 30 µM.
For `O=C(CCl)Nc1c(Nc2cc(F)cc(Cl)c2)ccc2nonc12` [Compound 49], the 50% inhibitory concentration (IC50) in data set [2] was over 30 µM.
In the case of `Cc1ccc(CNc2ccc3nonc3c2[N+](=O)[O-])cc1` [Compound 4], the IC50 in data set [2] was over 30 µM.
In the case of `O=[N+]([O-])c1c(Nc2cccc(F)c2)ccc2nonc12` [Compound 23], the “weakening of binding relative to compound 32” value in data set [1] is given as 25 fold.
With `O=[N+]([O-])c1c(Nc2ccc(C(F)(F)F)cc2Cl)ccc2nonc12` [Compound 24], the concentration for half-maximal inhibition (IC50) in data set [2] is over 30 µM.
Same read-out and setting: the result for `CC(=O)Nc1c(Nc2cc(F)cc(Cl)c2)ccc2nonc12` [Compound 48] reads over 30 µM.
As for `CN(C)S(=O)(=O)c1c(Nc2cc(F)cc(Cl)c2)ccc2nonc12` [Compound 55], in data set [2], the “AlphaScreen activity (in words)” value is “inactive as disruptors”.
On to `O=[N+]([O-])c1c(NCc2c(F)cccc2Cl)ccc2nonc12` [Compound 7], for which the IC50 in data set [2] is over 30 µM.
Regarding `Nc1c(Nc2cc(F)cc(Cl)c2)ccc2nonc12` [Compound 47], the “AlphaScreen activity (in words)” value in data set [2] was “weak activity”. Also, the “worsening of binding and disruption relative to compound 32” value in data set [1] (binding and disruption, NO2 replaced by NH2, compared with 32) is 30–60 fold. The “solubility (in words)” value in data set [3] was “relatively insoluble”.
As for `O=[N+]([O-])c1c(Nc2cc(F)cc(F)c2)ccc2nonc12` [Compound 30], the “weakening of binding relative to compound 32” value in data set [1] came to 8 fold.
With `O=[N+]([O-])c1c(NCc2cc(F)ccc2C(F)(F)F)ccc2nonc12` [Compound 11], the IC50 in data set [2] is over 30 µM.
With `Fc1cc(Cl)cc(Nc2ccc3nonc3c2)c1` [Compound 46], the “AlphaScreen activity (in words)” value in data set [2] was “weak activity”. Further, in data set [3], the “solubility (in words)” value is “relatively insoluble”.
Take `O=[N+]([O-])c1c(Nc2ccc(F)cc2)ccc2nonc12` [Compound 17]: the 50% inhibitory concentration (IC50) in data set [2] is over 30 µM.
For `O=[N+]([O-])c1c(Nc2ccc(Cl)cc2)ccc2nonc12` [Compound 18], in data set [2], the half-inhibitory concentration (IC50) was over 30 µM.
As for `O=C1C=CC(=O)N1c1c(Nc2cc(F)cc(Cl)c2)ccc2nonc12` [Compound 50], in data set [2], the IC50 is over 30 µM.
On to `CNS(=O)(=O)c1c(Nc2cc(F)cc(Cl)c2)ccc2nonc12` [Compound 54], for which, in data set [2], the “AlphaScreen activity (in words)” value was “inactive as disruptors” and the 50% inhibitory concentration (IC50) was over 30 µM.

Usually IC50 stands for the concentration that gives 50% inhibition.
